# Measurements from article PMC3569039 (Bioorganic & medicinal chemistry letters, 2011).
# Test system: HeLa cells
substance,measurement,value
Fluo-3,cellular debris in treated cells (apparent cytotoxicity),significant amount of cellular debris
